Series [1] deals with protein translation in P. falciparum trophozoites (Cam3.II-rev). Nature of the series: Protein translation assay (OPP incorporation). The series is classed as cell-based, Plasmodium falciparum. The conditions noted are these: for Translation: individual experiments, 0 nM = 100; for IC50: read-out: IC50 (Translation). As to the method: O-propargyl-puromycin (OPP) (Abcam) was added to the culture and incubated for a further 2 h. Parasites were washed three times in 1 × PBS (Gibco™) and fixed with 4% formaldehyde (Polysciences) and 0.02% glutaraldehyde (Sigma) in 1 × PBS for 20 min at room temperature (RT). Cells were washed two times with buffer A (3% human serum in 1 × PBS). Pellets were permeabilized in buffer A containing 0.05% Triton® X-100 and washed two times with buffer A. Fixed-permeabilized cells were subjected to copper-catalyzed azide–alkyne cycloaddition (CuAAC) at 37 °C for 1 h in the presence of 0.1 mM CuSO4, 0.5 mM THPTA, 5 mM sodium ascorbate, and 0.1 μM Alexa Fluor 488 azide in buffer A. Pellets were washed four times in buffer A and resuspended in buffer A containing 25 μg/ml propidium iodide (Invitrogen™). Cells were interrogated by flow cytometry (FACS Canto II; BD Biosciences, San Jose, CA) using FITC and Cy™5.5 channels.

Series [2] concerns P. falciparum Cam3.II-rev. Nature of the series: Drug pulse (6 h) viability assay. The conditions noted are these: for IC50: read-out: IC50 (Viability). The series is classed as cell-based, Plasmodium falciparum. As for the experimental part:
Viability was assessed in the second cycle by flow cytometry, following labeling with 2 μM Syto-61 (Thermo Fisher Scientific)[48],[49]. Viability represents the parasitemia normalized to untreated and “kill” controls that were treated with 2 μM dihydroartemisinin (DHA; Sigma-Aldrich) for 48–72 h. For drug pulse assays, tightly synchronized Cam3.II-rev[50] parasites (1–1.5% parasitemia, 0.2% final hematocrit) were added to the plates and incubated for 6 h. Drugs were removed and the parasitemia assessed in the trophozoite stage of the next cycle.

In series [3] the target is PfAsnRS (Plasmodium falciparum, UniProt O96198). Nature of the series: biochemical. The conditions noted are these: for ATP consumption: PfAsnRS, normalised to 1 (Fig 3D).
Setting [4] is: 78.1 nM, 6 h pulse, individual experiments, 0 nM = 100.
The mark [5] stands for this setting: 156.3 nM, 6 h pulse, individual experiments, 0 nM = 100.
Where [6] appears, read: 312.5 nM, 6 h pulse, individual experiments, 0 nM = 100.
[7] abbreviates: 625 nM, 6 h pulse, individual experiments, 0 nM = 100.
[8] abbreviates: 1250 nM, 6 h pulse, individual experiments, 0 nM = 100.
The mark [9] stands for this setting: 2500 nM, 6 h pulse, individual experiments, 0 nM = 100.
Setting [10] is: 5000 nM, 6 h pulse, individual experiments, 0 nM = 100.
Where [11] appears, read: 10000 nM, 6 h pulse, individual experiments, 0 nM = 100.
[12] abbreviates: 20000 nM, 6 h pulse, individual experiments, 0 nM = 100.

Values joined by “and” are separate entries in the source; they are usually repeats but may differ in a detail not shown here. Equal entries are not always repeated. Where two headings read alike, the source gives them in different places.

PfAsnRS, sequence (O96198 entry or part of it): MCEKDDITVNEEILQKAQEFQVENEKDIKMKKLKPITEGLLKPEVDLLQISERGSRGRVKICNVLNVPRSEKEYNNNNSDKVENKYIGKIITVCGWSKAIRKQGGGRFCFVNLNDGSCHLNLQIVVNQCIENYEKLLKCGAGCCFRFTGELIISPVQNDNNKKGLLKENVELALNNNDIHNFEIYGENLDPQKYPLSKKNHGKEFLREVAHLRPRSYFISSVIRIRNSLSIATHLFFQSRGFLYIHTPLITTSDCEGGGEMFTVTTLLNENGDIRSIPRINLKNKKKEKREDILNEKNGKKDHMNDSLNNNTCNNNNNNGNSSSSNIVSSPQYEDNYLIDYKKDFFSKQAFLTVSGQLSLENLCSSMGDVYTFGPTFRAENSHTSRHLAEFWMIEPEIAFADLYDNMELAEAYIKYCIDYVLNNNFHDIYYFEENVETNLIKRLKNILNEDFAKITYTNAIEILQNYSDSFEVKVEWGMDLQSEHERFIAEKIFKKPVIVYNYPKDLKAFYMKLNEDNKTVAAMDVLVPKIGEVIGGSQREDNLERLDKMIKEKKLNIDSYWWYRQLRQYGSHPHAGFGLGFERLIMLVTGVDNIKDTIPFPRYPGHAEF

In the case of `CC1(C)N=C(N)N=C(N)N1OCCCOc1cc(Cl)c(Cl)cc1Cl` [WR99210], the Translation in series [1] (78.1 nM, 6 h exposure) was 90.9036 and 76.9712 and 89.4018; in series [1] (156.3 nM, 6 h exposure), 89.4578 and 82.2873 and 81.3601; in series [1] (312.5 nM, 6 h exposure), 91.0241 and 91.4005 and 91.4867; in series [1] (625 nM, 6 h exposure), 83.5542 and 90.7751 and 99.6277; in series [1] (1250 nM, 6 h exposure), 82.5301 and 79.1155 and 98.3867; in series [1] (2500 nM, 6 h exposure), 84.3976 and 81.0364 and 102.259. Also, the Translation in series [1] (5000 nM, 6 h exposure) is 88.5542 and 92.6513 and 94.4155; in series [1] (10000 nM, 6 h exposure), 97.2892 and 85.5484 and 98.6845; in series [1] (20000 nM, 6 h exposure) it was 112.47 and 92.0706 and 98.0392; in series [1] (40000 nM, 6 h exposure), 103.313 and 81.0364 and 102.259. Further, the IC50 in series [1] (6 h exposure, OPP in last 2 h, Cam3.II-rev trophozoites) is more than 1000 nM; in series [2] (6 h pulse, viability at trophozoite stage of next cycle), 0.9 nM. The Viability was 90.9718 and 69.2733 and 98.7384 in series [2] (setting [4]); 76.1805 and 35.562 and 55.9172 in series [2] (setting [5]); 32.1885 and 5.756 and 17.0102 in series [2] (setting [6]); 6.692 and 4.516 and 3.401 in series [2] (setting [7]); 5.505 and 0.4167 and 0.2921 in series [2] (setting [8]); 3.52 and 0.4893 and 0.1273 in series [2] (setting [9]). The Viability is 3.786 and 0.4893 and 2.194 in series [2] (setting [10]); 2.477 and 1.7781 and 0.09123 in series [2] (setting [11]); 0 and 0.969 and 1.737 in series [2] (setting [12]); 3.358 and 0 (2×) in series [2] (40000 nM, 6 h pulse, individual experiments, 0 nM = 100).
Take `C[C@@H]1C[C@@H]([C@H](O)CC2CC(=O)NC(=O)C2)C(=O)[C@@H](C)C1` [Cycloheximide]: the Translation in series [1] (39.1 nM, 6 h exposure) is 91.0615 and 76.2984 and 81.7995; in series [1] (78.1 nM, 6 h exposure) it was 81.922 and 88.5493 and 60.1275; in series [1] (156.3 nM, 6 h exposure) it was 69.0756 and 65.574 and 56.5841; in series [1] (312.5 nM, 6 h exposure), 54.5569 and 51.3303 and 54.0173; in series [1] (625 nM, 6 h exposure), 34.3298 and 36.573 and 53.0328; in series [1] (1250 nM, 6 h exposure) it was 29.8359 and 24.3187 and 24.0049. For the same molecule, the Translation was 20.2838 and 21.5354 and 22.6499 in series [1] (2500 nM, 6 h exposure); 16.1089 and 19.5652 and 16.2965 in series [1] (5000 nM, 6 h exposure); 8.675 and 13.4553 and 5.495 in series [1] (10000 nM, 6 h exposure); 7.645 and 6.944 and 4.617 in series [1] (20000 nM, 6 h exposure). The IC50 was 331 nM in series [1] (Plasmodium falciparum) and more than 1000 nM in series [2] (Plasmodium falciparum, 6 h). Moreover, the Viability was 97.4339 and 92.233 in series [2] (39.1 nM, 6 h pulse, individual experiments, 0 nM = 100); 94.7793 and 98.0583 in series [2] (setting [4]); 102.013 and 98.7864 in series [2] (setting [5]); 97.9775 and 92.233 in series [2] (setting [6]); 92.6066 and 91.9903 in series [2] (setting [7]); 79.0045 and 78.3981 in series [2] (setting [8]). Moreover, the Viability is 100.147 and 80.518 and 75 in series [2] (setting [9]); 78.8213 and 75.2427 in series [2] (setting [10]); 77.1877 and 75 in series [2] (setting [11]); 95.0102 and 69.6652 and 71.1165 in series [2] (setting [12]). For the same molecule, the viability at 0.0391 µM in series [2] (Plasmodium falciparum, 6 h, 39.1 nM, 6 h pulse, individual experiments, 0 nM = 100) was 108%. Further, in series [2] (Plasmodium falciparum, 6 h, 78.1 nM, 6 h pulse, individual experiments, 0 nM = 100), the viability at 0.0781 µM worked out at 95.9%. For the same molecule, the viability at 0.1563 µM in series [2] (Plasmodium falciparum, 6 h, 156.3 nM, 6 h pulse, individual experiments, 0 nM = 100) came to 109%. Besides, in series [2] (Plasmodium falciparum, 6 h, 312.5 nM, 6 h pulse, individual experiments, 0 nM = 100), the viability at 0.3125 µM was found to be 104%. Besides, the viability at 0.625 µM in series [2] (Plasmodium falciparum, 6 h, 625 nM, 6 h pulse, individual experiments, 0 nM = 100) was determined as 102%. Moreover, the viability at 1.25 µM in series [2] (Plasmodium falciparum, 6 h, 1250 nM, 6 h pulse, individual experiments, 0 nM = 100) was 95%. Also, the viability at 5 µM in series [2] (Plasmodium falciparum, 6 h, 5000 nM, 6 h pulse, individual experiments, 0 nM = 100) worked out at 95.1%. The viability at 10 µM in series [2] (Plasmodium falciparum, 6 h, 10000 nM, 6 h pulse, individual experiments, 0 nM = 100) worked out at 88.3%.
As for `Nc1ncnc2c1ncn2[C@@H]1O[C@H](COS(N)(=O)=O)[C@@H](O)[C@H]1O` [AMS, adenosine 5’-O-sulfamate, reference compound], the ATP consumption in series [3] (0.03 μM AMS, 0.03 µM) is 0.946; in series [3] (0.1 μM AMS, 0.1 µM), 0.5414 and 0.637; in series [3] (0.3 μM AMS, 0.3 µM), 0.3347 and 0.4652; in series [3] (1 μM AMS, 1 µM), 0.189 and 0.2604; in series [3] (3 μM AMS, 3 µM) it was 0.1468 and 0.18; in series [3] (10 μM AMS, 10 µM), 0.0653 and 0.08191. The ATP consumption in series [3] (30 μM AMS, 30 µM) was 0.09691 and 0.0585. In series [3] (IC50, ATP consumption, 0.05 μM PfAsnRS, E. coli tRNA present, 37 °C, 1 h (Fig. 3C, D)), this molecule came in with an IC50 of 190 nM.

As a reminder, the IC50 is the concentration at which inhibition is half-maximal. One may read the viability as a read-out of living cells in per cent, often relative to untreated cells.

Values taken from article PMC10831071, “Reaction hijacking inhibition of Plasmodium falciparum asparagine tRNA synthetase” (Nature Communications, 2024).
